Measurements reported in US20100297256A1, “METHODS AND COMPOSITIONS FOR INHIBITING INTEGRINS USING TELLURIUM-CONTAINING COMPOUNDS” (priority 2007, published 2010).

What was measured:
West Nile Virus (WNV) [1] = assay: WNV plaque assay; assay type: cell-based; conditions: Vero cells, added 1 hour before inoculation
Method: Vero cells were seeded at a density of 1×10^6 cells in 10 cm dishes 20 hours prior to infection. WNV (5×10^3 PFU/ml, MOI=0.005 PFU/cell) was added to the cultures, and the plates were incubated for 1 hour at 37° C. with 5% CO2. After incubation, the medium was removed and the cells were washed 6 times with PBS and overlaid with fresh EMEM medium containing 4% FCS (fetal calf serum) and 1% (w/v) agar. Cells were then incubated at 37° C. with 5% CO2 for 3 days until plaques appeared, and then fixed and stained with a solution of 0.5% crystal violet in a mixture of formalin (1% v/v) and ethanol (1.65% v/v). Plaques were counted over a light box after removal of the agar overlay.

[2] = rats, intravenous and intramuscular administration; cited from earlier work
HL-60 cells = assay: AML chemotherapy resistance assay (XTT cell viability), HL-60; assay type: cell-based, human
Method: Cell viability was determined using a cell proliferation kit (Roche), which colors viable cells using the tetrazolium salt XTT.
(§1) 2×10^4 per 200 μl cells were seeded in 96-microwell flat bottom plates. After 24 hours, the tested compound(s) (e.g., AS101, ARA-C, DTNB, anti-VLA-4 antibody) was added, and the cells were incubated overnight with the tested compound(s). The XTT solution was then added and the cells were incubated for 4 hours at 37° C. Cell viability was than evaluated by measuring absorbance at 450 nm using a Microplate Spectrophotometer (Spectra MAX Plus, Molecular Devices).

[3] = system: leukemic cells from AML patients; assay: Sensitization of leukemic cells from AML patients to chemotherapy; assay type: cell-based, human
Method: as §1
Bone marrow samples from patients diagnosed, with AML, but not yet treated, were obtained and grown in vitro. The leukemic cells obtained therefrom were tested for levels of VLA-4 and VLA-5 via fluorescence based cytometry, using FITC (fluorescein isothiocyanate)-conjugated anti-VLA-4 and anti-VLA-5 antibodies, using standard procedures. The cells were grown on both fibronectin and BSA, and the effect of AS101 on chemotherapy resistance was measured.

VLA-4 = biological target: T1, VLA-4 (Homo sapiens, UniProt P13612); assay: Western blot analysis of VLA-4 thiols; assay type: cell-based; conditions: U937 cultured on fibronectin
T1 construct: free thiols are present on the integrin VLA-4 in leukemic cells; endogenous in cells; host or cells: U937 leukemic cells
T1 sequence (P13612 34-1032): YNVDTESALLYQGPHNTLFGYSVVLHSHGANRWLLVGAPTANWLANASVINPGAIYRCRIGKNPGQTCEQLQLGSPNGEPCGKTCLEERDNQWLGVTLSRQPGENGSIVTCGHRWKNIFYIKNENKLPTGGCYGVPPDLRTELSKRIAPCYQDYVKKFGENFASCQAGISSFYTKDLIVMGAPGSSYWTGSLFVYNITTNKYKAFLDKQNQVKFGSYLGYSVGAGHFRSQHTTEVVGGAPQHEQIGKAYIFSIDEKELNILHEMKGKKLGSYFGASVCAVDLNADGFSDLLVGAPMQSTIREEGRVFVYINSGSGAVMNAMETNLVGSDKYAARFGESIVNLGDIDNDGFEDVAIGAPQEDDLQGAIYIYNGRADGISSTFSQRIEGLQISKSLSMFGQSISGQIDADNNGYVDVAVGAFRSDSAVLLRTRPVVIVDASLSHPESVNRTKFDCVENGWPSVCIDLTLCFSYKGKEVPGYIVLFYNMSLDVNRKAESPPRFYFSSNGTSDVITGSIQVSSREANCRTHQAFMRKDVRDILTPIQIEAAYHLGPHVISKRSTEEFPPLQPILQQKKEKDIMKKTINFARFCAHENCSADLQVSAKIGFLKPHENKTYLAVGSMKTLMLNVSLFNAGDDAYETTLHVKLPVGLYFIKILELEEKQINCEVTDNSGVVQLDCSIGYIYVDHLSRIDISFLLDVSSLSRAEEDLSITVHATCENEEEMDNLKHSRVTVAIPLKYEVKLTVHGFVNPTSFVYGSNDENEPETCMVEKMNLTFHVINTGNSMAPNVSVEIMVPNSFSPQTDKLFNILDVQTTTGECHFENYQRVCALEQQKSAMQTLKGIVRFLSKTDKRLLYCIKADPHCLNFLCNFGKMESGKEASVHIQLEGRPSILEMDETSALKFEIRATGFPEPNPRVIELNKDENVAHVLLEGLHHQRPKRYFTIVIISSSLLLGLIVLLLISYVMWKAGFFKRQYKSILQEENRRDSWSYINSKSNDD
T1 sequence (P05556 21-798 partner): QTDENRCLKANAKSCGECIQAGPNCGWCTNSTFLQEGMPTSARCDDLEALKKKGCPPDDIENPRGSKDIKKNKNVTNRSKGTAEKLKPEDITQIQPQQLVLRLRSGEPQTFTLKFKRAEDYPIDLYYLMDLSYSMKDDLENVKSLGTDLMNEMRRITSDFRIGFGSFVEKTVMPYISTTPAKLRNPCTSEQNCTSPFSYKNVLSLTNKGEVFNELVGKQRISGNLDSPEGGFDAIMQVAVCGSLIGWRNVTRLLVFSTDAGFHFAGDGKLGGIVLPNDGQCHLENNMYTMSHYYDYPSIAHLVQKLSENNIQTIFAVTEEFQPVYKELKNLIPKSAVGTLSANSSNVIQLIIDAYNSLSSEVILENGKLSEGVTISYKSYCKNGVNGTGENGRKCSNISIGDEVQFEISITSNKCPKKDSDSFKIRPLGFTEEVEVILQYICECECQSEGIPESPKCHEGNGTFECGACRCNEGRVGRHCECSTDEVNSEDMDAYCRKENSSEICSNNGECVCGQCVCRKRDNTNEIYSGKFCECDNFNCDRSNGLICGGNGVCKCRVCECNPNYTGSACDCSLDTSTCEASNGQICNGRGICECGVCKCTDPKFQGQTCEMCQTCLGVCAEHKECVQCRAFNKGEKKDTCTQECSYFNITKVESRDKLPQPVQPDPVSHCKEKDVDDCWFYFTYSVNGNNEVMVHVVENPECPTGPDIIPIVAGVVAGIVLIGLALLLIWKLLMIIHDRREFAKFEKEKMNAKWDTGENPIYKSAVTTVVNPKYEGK
Method: In order to confirm that free thiols are present on the integrin VLA-4 in leukemic cells, and that these are blocked by AS101, U937 leukemic cells cultured on fibronectin or BSA were treated with BMCC (1-biotinamido-4-(4′-[maleimidoethylcyclohexane]-carboxamido)butane), a thiol blocker linked to biotin. Some cultures were treated with AS101. The α and β chains of the VLA-4 (α4β1 integrin) were then immunoprecipitated from the treated cells using either anti-α4 or anti-β1 antibodies and blotted with anti-biotin antibody. The presence of free thiols was indicated by bands observed by anti-biotin blotting. The presence of α4 and β1 chains was determined by blotting with anti-α4 and anti-β1 antibodies.

West Nile Virus (WNV) [4] = assay: West Nile Virus (WNV) cytopathic effect assay; assay type: cell-based; conditions: Vero cells
Method: Attached cells were washed with PBS without Ca^+2/Mg^+2. 100 μl of 0.2% crystal violet in 20% methanol was thereafter added and the cells were incubated for 10 minutes at room temperature. At the end of incubation time, cells were washed twice with double-distilled water and 100 μl of 10% SDS was added. Dye bound to the cell is released by SDS and the absorption by the dye is measured by colorimetry at 570 nm. The amount of stained cells is then considered to be proportional to the measured absorption by the dye
Vero cells were seeded at the density of 2×10^4 cells/well in 96-well plates, 20 hours before infection. The cells were treated with PBS or with various concentrations of AS101 before (1 hour or 5-10 minutes), or after (1 hour or 24 hours) virus inoculation. WNV at MOI (multiplicity of infection) of 0.005 PFU (plaque forming units) per cell was added to the cells and allowed undergo absorption for 1 hour at 37° C. The medium was removed and the cells were washed twice with PBS and overlaid with fresh medium. Cells were then incubated at 37° C. with 5% CO2 for 3-5 days. The development of a cytopathic effect was monitored by light microscopy.

αVβ3 integrin = biological target: T2, αVβ3 integrin (Homo sapiens, UniProt P05106+P06756); assay: Integrin-WNV attachment assay; assay type: binding; conditions: purified integrin 75 ng/well
T2 construct: purchased Chemicon
T2 sequence (P06756 31-889 limits assumed): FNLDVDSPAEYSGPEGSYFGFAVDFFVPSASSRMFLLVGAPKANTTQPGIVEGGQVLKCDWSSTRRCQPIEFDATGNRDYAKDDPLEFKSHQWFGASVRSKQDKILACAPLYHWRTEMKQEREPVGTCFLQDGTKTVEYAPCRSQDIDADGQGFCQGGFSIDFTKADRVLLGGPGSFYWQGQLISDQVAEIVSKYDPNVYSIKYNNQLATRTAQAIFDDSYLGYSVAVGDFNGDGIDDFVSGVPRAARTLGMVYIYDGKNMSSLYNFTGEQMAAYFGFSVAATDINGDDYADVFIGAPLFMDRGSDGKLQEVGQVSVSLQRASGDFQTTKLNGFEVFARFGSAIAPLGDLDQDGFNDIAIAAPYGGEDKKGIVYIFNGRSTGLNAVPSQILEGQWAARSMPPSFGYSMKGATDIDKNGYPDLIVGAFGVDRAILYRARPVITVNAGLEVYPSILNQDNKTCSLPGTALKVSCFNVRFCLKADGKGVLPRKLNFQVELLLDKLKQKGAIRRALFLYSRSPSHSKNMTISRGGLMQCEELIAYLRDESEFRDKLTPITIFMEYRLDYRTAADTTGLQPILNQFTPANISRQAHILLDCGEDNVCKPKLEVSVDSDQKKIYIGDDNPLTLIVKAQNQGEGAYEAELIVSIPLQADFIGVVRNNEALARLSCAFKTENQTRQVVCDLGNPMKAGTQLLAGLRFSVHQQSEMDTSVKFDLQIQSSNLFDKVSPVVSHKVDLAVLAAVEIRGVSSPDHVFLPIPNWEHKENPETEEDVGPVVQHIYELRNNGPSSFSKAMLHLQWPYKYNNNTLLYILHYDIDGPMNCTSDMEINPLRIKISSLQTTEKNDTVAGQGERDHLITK
T2 sequence (P06756 891-1048 limits assumed): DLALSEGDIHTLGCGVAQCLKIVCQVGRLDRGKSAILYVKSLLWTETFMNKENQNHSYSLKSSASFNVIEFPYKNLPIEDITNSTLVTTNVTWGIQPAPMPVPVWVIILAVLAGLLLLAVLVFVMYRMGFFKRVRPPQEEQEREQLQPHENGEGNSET
T2 sequence (P05106 27-788): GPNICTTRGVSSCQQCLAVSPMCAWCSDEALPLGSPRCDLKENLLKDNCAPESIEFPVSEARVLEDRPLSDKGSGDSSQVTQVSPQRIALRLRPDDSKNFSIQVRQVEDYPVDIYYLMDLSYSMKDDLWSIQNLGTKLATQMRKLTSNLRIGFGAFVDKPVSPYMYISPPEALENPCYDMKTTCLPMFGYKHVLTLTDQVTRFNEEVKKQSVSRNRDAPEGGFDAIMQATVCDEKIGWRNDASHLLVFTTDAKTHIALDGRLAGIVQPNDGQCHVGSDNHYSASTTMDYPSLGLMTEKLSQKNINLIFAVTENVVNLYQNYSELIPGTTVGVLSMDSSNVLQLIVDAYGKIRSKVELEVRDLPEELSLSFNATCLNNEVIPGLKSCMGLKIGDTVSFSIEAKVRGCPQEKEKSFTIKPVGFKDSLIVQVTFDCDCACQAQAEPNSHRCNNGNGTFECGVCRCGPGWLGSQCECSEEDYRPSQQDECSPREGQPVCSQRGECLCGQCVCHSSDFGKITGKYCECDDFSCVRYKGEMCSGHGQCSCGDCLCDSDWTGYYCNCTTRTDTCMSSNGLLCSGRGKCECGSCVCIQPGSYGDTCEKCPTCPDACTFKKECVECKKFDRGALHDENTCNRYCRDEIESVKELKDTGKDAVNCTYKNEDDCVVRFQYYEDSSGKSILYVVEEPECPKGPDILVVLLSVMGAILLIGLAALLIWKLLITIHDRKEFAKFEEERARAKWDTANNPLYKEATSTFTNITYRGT
Method: A solid-phase binding assay was performed according to a method previously described by Sharma et al [Virology, 239:150, 1997]. WNV was diluted in 50 mM carbonate-bicarbonate buffer, pH 9.6, to a concentration of 10^6 PFU/ml, and 100 μl aliquots were added to the wells of 96-well Nunc-Maxisorp ELISA plates. The plates were incubated overnight at 4° C., washed three times with washing buffer (20 mM Tris-HCL [pH 7.5], 150 mM NaCl), and then blocked for 2 hours at room temperature with […] of blocking buffer containing 20 mM Tris-HCL, pH 7.5, 150 mM NaCl, 5% Bovine serum albumin (BSA). The wells were then washed again, and purified αVβ3 integrin (75 ng/well), diluted in binding buffer (20 mM Tris-HCL, pH 7.5, 150 mM NaCl, 5% BSA, 2 mM CaCl2, 1 mM MgCl2) containing various concentrations of AS101, was added to the wells. After 2 hours of incubation at 37° C., the wells were washed three times with washing buffer. Bound integrin was detected with mouse monoclonal anti-human αVβ3 integrin antibody (Millipore [Chemicon]) diluted 1:1000 in 100 μl binding buffer. Incubation continued for 1 hour at 37 C, and then the wells were washed again. […] Colour development was stopped by the addition of 1 N H2SO4, and plates were read in a spectrophotometer at 492 nm.

[5] = HL-60, fibronectin-coated plates, 0.5 or 1 μg/ml AS101

Cl[TeH]1(Cl)(Cl)OCCO1 [AS101, ammonium trichloro(dioxyethylene-O,O′)tellurate]
WNV-induced plaque formation (West Nile Virus (WNV) [1]): dose-dependent protective effect against the plaque formation | LD50 relative to the immunologically effective dose [2]: 500-1000 folds | sensitization to daunorubicin-induced cell death (HL-60 cells; HL-60, BSA-coated or VCAM-1-coated plates): no visible effect | sensitization to ARA-C-induced cell death (HL-60 cells; [5]): sensitized HL-60 cells to ARA-C-induced cell death on fibronectin-coated plates | sensitization to daunorubicin-induced cell death (HL-60 cells; [5]): sensitized HL-60 cells to daunorubicin-induced cell death on fibronectin-coated plates in a dose-dependent manner | inhibition of resistance to ARA-C ([3]; 8 AML patients with high VLA-4 levels, on fibronectin, 0.5 or 1 μg/ml AS101): inhibited the resistance to ARA-C of high-VLA-4 cells on fibronectin in a dose-dependent manner | inhibition of resistance to ARA-C ([3]; Patient B, high VLA-4, on fibronectin): inhibited the resistance to ARA-C of high-VLA-4 cells on fibronectin in a dose-dependent manner | sensitization to ARA-C, combination of AS101 and DTNB vs either alone ([3]; high-VLA-4 cells on fibronectin): did not sensitize high-VLA-4 cells grown on fibronectin to a greater degree than did either AS101 or DTNB alone | effect on viability of cells exposed to ARA-C, alone or in combination ([3]; low VLA-4 leukemic cells, fibronectin-coated plates): no effect either alone or in combination | free thiols on the α chain of VLA-4 (BMCC labelling) (VLA-4): eliminated these free thiols | WNV cytopathic effect (West Nile Virus (WNV) [4]; 2.5 μg/ml added 5-10 minutes before inoculation): no cytopathic effect is observed | viability of WNV-infected cells (crystal violet) (West Nile Virus (WNV) [4]; 72 hours after infection): dose-dependent protective effect | WNV cytopathic effect (West Nile Virus (WNV) [4]; added 1 hour or 24 hours after inoculation, data not shown): did not exhibit such an inhibitory effect | attachment of αVβ3 integrin to immobilized WNV (αVβ3 integrin): directly inhibited the attachment of αVβ3 integrin to WNV in a dose dependent manner
